From ChEMBL document CHEMBL1133243, “Synthesis and antimicrobial activity of some isoindolin-1-ones derivatives” (2000)
≈ marks a conversion by molar mass, not a printed value. Calls of active or inactive are those of the source. The rule behind the calls is not given here.

Columns and labels:
Escherichia coli = assay: Minimum inhibitory concentration against Escherichia coli.; format: functional
Kocuria rosea = assay: Minimum inhibitory concentration against Micrococcus roseus; format: functional
Bacillus subtilis [1] = assay: Minimum inhibitory concentration against Bacillus subtilis; format: functional
Staphylococcus aureus [2] = assay: Compound was evaluated for minimum inhibitory concentration against Staphylococcus aureus; format: functional
Pseudomonas aeruginosa = assay: Minimum inhibitory concentration against Pseudomonas aeruginosa; format: functional
Bacteria [3] = assay: Antimicrobial activity against gram positive and gram negative bacteria; Active; format: functional, organism-based
[4] = Antimicrobial activity against aspergillus sp and Candida albicans; Inactive; format: functional
Bacteria [5] = assay: Compound tested for in vitro antimicrobial activity against gram positive and gram negative bacteria; Active; format: functional, organism-based
Staphylococcus aureus [6] = assay: Minimum inhibitory concentration against Staphylococcus aureus; format: functional
Bacteria [7] = assay: Antimicrobial activity against gram positive and gram negative bacteria; Inactive; format: functional, organism-based
Bacillus subtilis [8] = assay: Compound was evaluated for minimum inhibitory concentration against Bacillus subtilis;Zero growth inhibition; format: functional, organism-based
Staphylococcus aureus [9] = assay: Compound was evaluated for minimum inhibitory concentration against Staphylococcus aureus;Zero growth inhibition; format: functional, organism-based

| SMILES | MIC (Escherichia coli) [µg/mL] | MIC (Kocuria rosea) [µg/mL] | MIC (Bacillus subtilis [1]) [µg/mL] | MIC (Pseudomonas aeruginosa) [µg/mL] | MIC (Staphylococcus aureus [6]) [µg/mL] | MIC (Bacillus subtilis [8]) | MIC (Staphylococcus aureus [9]) | Inhibition (Staphylococcus aureus [2]) [%] | Activity (Bacteria [3]) | Activity [4] | Activity (Bacteria [5]) | Activity (Bacteria [7]) |
| --- | --- | --- | --- | --- | --- | --- | --- | --- | --- | --- | --- | --- |
| CC(C)C1COC2c3ccccc3C(=O)N21 (stereo not drawn) | – | – | – | – | – | – | – | – | – | – | – | inactive |
| O=C(O)[C@H](CO)N1Cc2ccccc2C1=O | 1620 (≈ 7.32 mM) | 2610 (≈ 11.8 mM) | 729 (≈ 3.3 mM) | 3600 (≈ 16.3 mM) | 3600 (≈ 16.3 mM) | – | – | – | Active | inactive | – | – |
| O=C1c2ccccc2C2OCC(Cc3ccccc3)N12 (stereo not drawn) | – | – | – | – | – | – | – | – | – | inactive | – | inactive |
| Cc1ccc(N2Cc3ccccc3C2=O)cc1 | – | – | – | – | – | – | – | – | – | inactive | – | inactive |
| CC(c1ccccc1)N1Cc2ccccc2C1=O (stereo not drawn) | – | – | – | – | – | – | – | – | – | inactive | – | inactive |
| COc1ccc(N2Cc3ccccc3C2=O)cc1 | – | – | – | – | – | – | – | – | – | inactive | – | inactive |
| O=C(O)C[C@@H](C(=O)O)N1Cc2ccccc2C1=O | 729 (≈ 2.93 mM) | 2610 (≈ 10.5 mM) | 147 (≈ 0.59 mM) | 1620 (≈ 6.5 mM) | 3600 (≈ 14.4 mM) | – | – | – | Active | inactive | – | – |
| CCC(C)C(C(=O)O)N1Cc2ccccc2C1=O (stereo not drawn) | 1620 (≈ 6.55 mM) | 1180 (≈ 4.75 mM) | 729 (≈ 2.95 mM) | 3600 (≈ 14.6 mM) | 3600 (≈ 14.6 mM) | – | – | – | Active | inactive | – | – |
| CC(C)[C@H](C(=O)O)N1Cc2ccccc2C1=O | 3600 (≈ 15.4 mM) | 1620 (≈ 6.94 mM) | 1620 (≈ 6.94 mM) | 3600 (≈ 15.4 mM) | 3600 (≈ 15.4 mM) | – | – | – | Active | inactive | – | – |
| O=C1c2ccccc2C2OCC(c3ccccc3)N12 (stereo not drawn) | – | – | – | – | – | – | – | – | – | inactive | – | inactive |
| O=C1c2ccccc2C(O)N1Cc1ccccc1 (stereo not drawn) | 2610 (≈ 10.9 mM) | 1620 (≈ 6.77 mM) | – | 3600 (≈ 15 mM) | – | Zero growth inhibition | Zero growth inhibition | – | Active | inactive | – | – |

More lines, main results first:

| MIC (Escherichia coli) [µg/mL] | MIC (Kocuria rosea) [µg/mL] | MIC (Bacillus subtilis [1]) [µg/mL] | MIC (Pseudomonas aeruginosa) [µg/mL] | MIC (Staphylococcus aureus [6]) [µg/mL] | MIC (Bacillus subtilis [8]) | MIC (Staphylococcus aureus [9]) | SMILES | Inhibition (Staphylococcus aureus [2]) [%] | Activity (Bacteria [3]) | Activity [4] | Activity (Bacteria [5]) | Activity (Bacteria [7]) |
| --- | --- | --- | --- | --- | --- | --- | --- | --- | --- | --- | --- | --- |
| 1620 (≈ 6.06 mM) | 729 (≈ 2.73 mM) | 529 (≈ 1.98 mM) | 3600 (≈ 13.5 mM) | – | – | – | O=C(O)[C@H](c1ccccc1)N1Cc2ccccc2C1=O | 0 | Active | inactive | – | – |
| 1620 (≈ 7.89 mM) | 1620 (≈ 7.89 mM) | 729 (≈ 3.55 mM) | 3600 (≈ 17.5 mM) | 1620 (≈ 7.89 mM) | – | – | C[C@@H](C(=O)O)N1Cc2ccccc2C1=O | – | – | inactive | Active | – |
| 3600 (≈ 17.5 mM) | 2610 (≈ 12.7 mM) | 328 (≈ 1.6 mM) | 3600 (≈ 17.5 mM) | 1620 (≈ 7.89 mM) | – | – | C[C@H](C(=O)O)N1Cc2ccccc2C1=O | – | – | inactive | Active | – |
| 1620 (≈ 6.94 mM) | 1620 (≈ 6.94 mM) | 1620 (≈ 6.94 mM) | 3600 (≈ 15.4 mM) | 3600 (≈ 15.4 mM) | – | – | CC(C)[C@@H](C(=O)O)N1Cc2ccccc2C1=O | – | Active | inactive | – | – |
| 3600 (≈ 14.6 mM) | 3600 (≈ 14.6 mM) | 729 (≈ 2.95 mM) | 3600 (≈ 14.6 mM) | 3600 (≈ 14.6 mM) | – | – | CC(C)CC(C(=O)O)N1Cc2ccccc2C1=O (stereo not drawn) | – | Active | inactive | – | – |
| 3600 (≈ 12.8 mM) | 2610 (≈ 9.28 mM) | 1180 (≈ 4.18 mM) | 3600 (≈ 12.8 mM) | – | – | – | O=C(O)[C@H](Cc1ccccc1)N1Cc2ccccc2C1=O | 0 | Active | inactive | – | – |
